From patent publication US6214969A, “Luteinizing hormone releasing hormone analogs with cytotoxic moiety” (The Administrators of the Tulane Educational Fund, priority 1993, dated 2001)

Key:
[1] = system: dispersed rat pituitary cells (LH release); assay: LH-releasing activity in superfused rat pituitary cell system; assay type: cell-based; conditions: Table 1; compared to that produced by 3 nM LH-RH; peptide infused 3 min
Source text: B. Greenstein, Harwood Academic Publishers, London, (1990)].

[2] = molecular target: T1, membrane receptors of human breast cancer cells (LHRH receptors) (Homo sapiens, UniProt P30968); assay: Receptor binding affinity for human breast cancer cell membranes, 125I-[D-Trp]6 LHRH as labelled ligand; conditions: 125I-[D-Trp]6 LHRH ligand, NB = no binding
T1 construct: from tissue
T1 sequence (P30968 1-328): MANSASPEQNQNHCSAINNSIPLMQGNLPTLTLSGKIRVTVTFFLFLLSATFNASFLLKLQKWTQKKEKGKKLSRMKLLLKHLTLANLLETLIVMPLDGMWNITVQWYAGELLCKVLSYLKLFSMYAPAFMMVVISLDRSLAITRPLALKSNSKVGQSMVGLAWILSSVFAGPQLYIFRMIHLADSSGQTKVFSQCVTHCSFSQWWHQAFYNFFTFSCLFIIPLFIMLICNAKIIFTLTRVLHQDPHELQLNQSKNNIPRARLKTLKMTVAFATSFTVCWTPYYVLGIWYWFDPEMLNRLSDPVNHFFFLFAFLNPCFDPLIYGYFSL
Protocol: Affinity for peptides to human breast cancer cell membranes is determined by using labelled LHRH and [D-Trp^6 ]LHRH. The assay is carried out similarly to that described by T. Kadar et al., Proc. Natl. Acad. Sci. USA, 85, 890-894 (1988) and M. Fekete et al., Endocrinology, 124, 946-955 (1989).
(§1) Table 2 presents the antiovulatory activity and human breast cancer cell membrane receptor binding affinity of the claimed compounds having LHRH-inhibiting properties. The inhibitory action was determined in vivo, in 4-day cycling rats as described [A. Corbin and C. W. Beattie, Endocr. Res. Commun., 2, 1-23 (1975)].

[3] = system: MCF-7 human breast cancer cell line; assay: Inhibition of 3H-thymidine incorporation into DNA, MCF-7; assay type: cell-based
Protocol: Ability of peptides of Formula I to inhibit incorporation of [^3 H]thymidine into DNA of monolayer cultures the human mammary tumor cell line MCF-7 is assayed as described [V. K. Sondak et al., Cancer Research, 44, 1725-1728 (1984); F. Holzel et al., J. Cancer Res. Clin. Oncol. 109, 217-226 (1985); M. Albert et al., J. Cancer Res. Clin. Oncol. 109, 210-216 (1985)].
(§2) 200,000 cells in 200 μl of […]+2% CFBS were incubated with 1, 5 or 10 μg cytotoxic analogs for 3 hours or 23 hours then 1 μCi ^3 H-thymidine added and incubated an additional 60 min. DNA extracted with 1 N perchloric acid and the radioactivity measured.

[4] = system: ovulation in 4-day cycling rats; assay: In vivo antiovulatory activity in 4-day-cycling rats; conditions: 10 μg per rat
Protocol: This activity of the peptides is determined in 4-day-cycling rats as described [A. Corbin and C. W. Beattie, Endocr. Res. Commun., 2, 1-23 (1975)].
as §1

SkBr-3 Cell line = assay: Inhibition of 3H-thymidine incorporation into DNA, SkBr-3; assay type: cell-based, human
Protocol: as §2

MDA-MB-231 Cell Line = assay: Inhibition of 3H-thymidine incorporation into DNA, MDA-MB-231; assay type: cell-based, human
Protocol: as §2

T47D Cell line = assay: Inhibition of 3H-thymidine incorporation into DNA, T47D; assay type: cell-based, human
Protocol: as §2

[5] = system: human mammary cell line MDA-MB-231; conditions: 10 μg dose; cited from earlier work

## pGlu-His-Trp-Ser-Tyr-D-Lys[Ahx(MTX)]-Leu-Arg-Pro-Gly-NH2 [compound 34]
[1]
  Relative Activity (LH-releasing activity): 6.7
[2]; Table 1 (agonists)
  Affinity Constant Ka1: 4.42 nM⁻¹
[3]; dose 1 μg/ml
  % Inhibition at 24 hrs: 16%
[3]; dose 10 μg/ml
  % Inhibition at 24 hrs: 21%

## Ac-D-Nal(2)-D-Phe(4Cl)-D-Pal(3)-Ser-Arg-D-Lys(MTX)-Leu-Arg-Pro-D-Ala-NH. sub.2 [compound 29]
[2]; Table 2 (antagonists)
  Affinity Constant Ka1: 0.44 nM⁻¹
  Affinity Constant Ka2: 1.04 µM⁻¹
[3]; dose 1 μg/ml
  % Inhibition at 24 hrs: 10%
[3]; dose 10 μg/ml
  % Inhibition at 24 hrs: 16%
[4]
  % Ovulation Blocked: 100%

## Ac-D-Nal(2)-D-Phe(4Cl)-D-Trp-Ser-Tyr-D-Lys(D-Mel)-Leu-Arg-Pro-D-Ala-NH. sub.2 [compound 15]
[2]; Table 2 (antagonists)
  Affinity Constant Ka1: 3.58 nM⁻¹
[4]
  % Ovulation Blocked: 100%

## pGlu-His-Trp-Ser-Tyr-D-Orn(MTX)-Leu-Arg-Pro-Gly-NH2 [compound 11]
[3]; dose 1 μg/ml
  % Inhibition at 4 hrs: 34%
  % Inhibition at 24 hrs: 7%
[3]; dose 10 μg/ml
  % Inhibition at 4 hrs: 29%
  % Inhibition at 24 hrs: 3%

## pGlu-His-Trp-Ser-Tyr-D-Lys(Glt-DOX)-Leu-Arg-Pro-Gly-NH2 [compound 33]
[1]
  Relative Activity (LH-releasing activity): 12
[2]; Table 1 (agonists)
  Affinity Constant Ka2: 14.4 µM⁻¹
SkBr-3 Cell line; dose 1 μg/ml
  % Inhibition at 4 hrs: 27%
  % Inhibition at 24 hrs: 0%
SkBr-3 Cell line; dose 10 μg/ml
  % Inhibition at 4 hrs: 24%
  % Inhibition at 24 hrs: 14%
MDA-MB-231 Cell Line; dose 1 μg/ml
  % Inhibition at 4 hrs: 20%
  % Inhibition at 24 hrs: 0%
MDA-MB-231 Cell Line; dose 10 μg/ml
  % Inhibition at 4 hrs: 9%
  % Inhibition at 24 hrs: 0%
[3]; dose 1 μg/ml
  % Inhibition at 4 hrs: 19%
  % Inhibition at 24 hrs: 0%
[3]; dose 5 μg/ml
  % Inhibition at 4 hrs: 34%
  % Inhibition at 24 hrs: 61%
T47D Cell line; dose 1 μg/ml
  % Inhibition at 4 hrs: 32%
  % Inhibition at 24 hrs: 11%
T47D Cell line; dose 10 μg/ml
  % Inhibition at 4 hrs: 44%
  % Inhibition at 24 hrs: 10%

## pGlu-His-Trp-Ser-Tyr-D-Lys[Ahx-A2 bu(SAL)2 (Cu)]-Leu-Arg-Pro-Gly-NH2
[5]
  inhibition of [3H]thymidine incorporation into DNA: 87%

## pGlu-His-Trp-Ser-Tyr-D-Lys(MTX)-Leu-Arg-Pro-Gly-NH2 [4B]
[2]; Table 1 (agonists)
  Affinity Constant Ka1: 0.63 nM⁻¹

## pGlu-His-Trp-Ser-Tyr-D-Lys(MTX)-Leu-Arg-Pro-Gly-NH2 [compound 4]
SkBr-3 Cell line; dose 1 μg/ml
  % Inhibition at 4 hrs: 21%
  % Inhibition at 24 hrs: 16%
SkBr-3 Cell line; dose 10 μg/ml
  % Inhibition at 4 hrs: 36%
  % Inhibition at 24 hrs: 10%
MDA-MB-231 Cell Line; dose 1 μg/ml
  % Inhibition at 4 hrs: 23%
  % Inhibition at 24 hrs: 0%
MDA-MB-231 Cell Line; dose 10 μg/ml
  % Inhibition at 4 hrs: 31%
  % Inhibition at 24 hrs: 8%
T47D Cell line; dose 1 μg/ml
  % Inhibition at 4 hrs: 38%
  % Inhibition at 24 hrs: 26%
T47D Cell line; dose 10 μg/ml
  % Inhibition at 4 hrs: 54%
  % Inhibition at 24 hrs: 41%

## Ac-D-Nal(2)-D-Phe(4Cl)-D-Trp-Ser-Tyr-D-Lys(MTX)-Leu-Arg-Pro-D-Ala-NH2 [compound 18]
[2]; Table 2 (antagonists)
  Affinity Constant Ka1: 3.58 nM⁻¹
  Affinity Constant Ka2: 1.07 µM⁻¹

## pGlu-His-Trp-Ser-Tyr-D-Lys(MTX)-Leu-Arg-Pro-Gly-NH2 [4A]
[2]; Table 1 (agonists)
  Affinity Constant Ka1: 5.42 nM⁻¹
  Affinity Constant Ka2: 1.59 µM⁻¹

## Ac-D-Nal(2)-D-Phe(4Cl)-D-Trp-Ser-Arg-D-Lys(D-Mel)-Leu-Arg-Pro-D-Ala-NH. sub.2 [compound 19]
[2]; Table 2 (antagonists)
  Affinity Constant Ka2: 32.54 µM⁻¹
[3]; dose 1 μg/ml
  % Inhibition at 24 hrs: 34%
[3]; dose 10 μg/ml
  % Inhibition at 24 hrs: 49%
[4]
  % Ovulation Blocked: 40%
